Test results published in US10681909B2, “Herbicidal triazoles” (FMC Corporation, priority 2014, dated 2020).

Columns and labels:
[1] = system: soybean; experiment: Test E preemergence; type: in vivo, Glycine max; conditions: scale 0 to 100
From the text: (§1) Seeds of plant species selected from corn (Zea mays), soybean (Glycine max), lambsquarters (Chenopodium album), poinsettia, wild (wild poinsettia, Euphorbia heterophylla), pigweed, palmer (palmer pigweed, Amaranthus palmeri), waterhemp (common waterhemp, Amaranthus rudis), surinam grass (Brachiaria decumbens), crabgrass, large (large crabgrass, Digitaria sanguinalis), crabgrass, Brazilian (Brazilian crabgrass, Digitaria horizontalis), panicum, fall (fall panicum, Panicum dichotomiflorum), foxtail, giant (giant foxtail, Setaria faberii), foxtail, green (green foxtail, Setaria viridis), goosegrass (Eleusine indica), johnsongrass (Sorghum halepense), ragweed (common ragweed, Ambrosia elatior), barnyardgrass (Echinochloa crus-galli), sandbur (southern sandbur, Cenchrus echinatus), arrowleaf sida (Sida rhombifolia), ryegrass, Italian (Italian ryegrass, Lolium multiflorum), dayflower, VA (Virginia dayflower, Commelina virginica), field bindweed (Convolvulus arvensis), cocklebur (common cocklebur, Xanthium strumarium), morningglory (Ipomoea coccinea), nightshade (eastern black nightshade, Solanum ptycanthum), kochia (Kochia scoparia), nutsedge, yellow (yellow nutsedge, Cyperus esculentus), smartweed (ladysthumb smartweed, Polygonum persicaria), velvetleaf (Abutilon theophrasti), horseweed (Conyza canadensis), and beggarticks (hairy beggarticks, Bidens pilosa), were planted into a silt loam soil and treated preemergence with test chemicals formulated in a non-phytotoxic solvent mixture which included a surfactant.
(§2) At the same time, plants from these crop and weed species and also waterhemp_RES1, (ALS & Triazine resistant common waterhemp, Amaranthus rudis), and waterhemp_RES2, (ALS & HPPD resistant common waterhemp, Amaranthus rudis) were planted in pots containing Sunshine Redi-Earth® planting medium comprising spaghnum peat moss, vermiculite, starter nutrients and dolomitic limestone were treated with postemergence applications of test chemicals formulated in the same manner. Plants ranged in height from 2 to 18 cm for postemergence treatments (1- to 4-leaf stage). Treated plants and controls were maintained in a greenhouse for 14 to 21 d, after which time all species were compared to controls and visually evaluated. Plant response ratings, summarized in Table E, are based on a scale of 0 to 100 where 0 is no effect and 100 is complete control. A dash (-) response means no test result.

[2] = system: waterhemp; experiment: Test E preemergence; type: in vivo, Amaranthus rudis; conditions: scale 0 to 100
From the text: as §1, §2

[3] = system: surinam grass; experiment: Test E preemergence; type: in vivo, Brachiaria decumbens; conditions: scale 0 to 100
From the text: as §1, §2

[4] = system: crabgrass, large; experiment: Test E preemergence; type: in vivo, Digitaria sanguinalis; conditions: scale 0 to 100
From the text: as §1, §2

[5] = system: crabgrass, Brazilian; experiment: Test E preemergence; type: in vivo, Digitaria horizontalis; conditions: Brazil, scale 0 to 100
From the text: as §1, §2

[6] = system: panicum, fall; experiment: Test E preemergence; type: in vivo, Panicum dichotomiflorum; conditions: scale 0 to 100
From the text: as §1, §2

[7] = system: foxtail, giant; experiment: Test E preemergence; type: in vivo, Setaria faberii; conditions: scale 0 to 100
From the text: as §1, §2

[8] = system: johnsongrass; experiment: Test E preemergence; type: in vivo, Sorghum halepense; conditions: scale 0 to 100
From the text: as §1, §2

[9] = system: barnyardgrass; experiment: Test E preemergence; type: in vivo, Echinochloa crus-galli; conditions: scale 0 to 100
From the text: as §1, §2

[10] = system: arrowleaf sida; experiment: Test E preemergence; type: in vivo, Sida rhombifolia; conditions: scale 0 to 100
From the text: as §1, §2

[11] = system: ryegrass, Italian; experiment: Test E preemergence; type: in vivo, Lolium multiflorum; conditions: scale 0 to 100
From the text: as §1, §2

[12] = system: morningglory; experiment: Test E preemergence; type: in vivo, Ipomoea coccinea; conditions: scale 0 to 100
From the text: as §1, §2

[13] = system: nutsedge, yellow; experiment: Test E preemergence; type: in vivo, Cyperus esculentus; conditions: scale 0 to 100
From the text: as §1, §2

[14] = system: velvetleaf; experiment: Test E preemergence; type: in vivo, Abutilon theophrasti; conditions: scale 0 to 100
From the text: as §1, §2

[15] = system: beggarticks; experiment: Test E preemergence; type: in vivo, Bidens pilosa; conditions: scale 0 to 100
From the text: as §1, §2

[16] = system: corn; experiment: Test E postemergence; type: in vivo, Zea mays; conditions: scale 0 to 100
From the text: as §1, §2

[17] = system: soybean; experiment: Test E postemergence; type: in vivo, Glycine max; conditions: scale 0 to 100
From the text: as §1, §2

[18] = system: panicum, fall; experiment: Test E postemergence; type: in vivo, Panicum dichotomiflorum; conditions: scale 0 to 100
From the text: as §1, §2

[19] = system: sandbur; experiment: Test E postemergence; type: in vivo, Cenchrus echinatus; conditions: scale 0 to 100
From the text: as §1, §2

[20] = system: arrowleaf sida; experiment: Test E postemergence; type: in vivo, Sida rhombifolia; conditions: scale 0 to 100
From the text: as §1, §2

Measured: Plant response rating

Fc1ccc(-c2nc(OCC(F)(F)F)n(Cc3ccnc(C(F)(F)F)c3)n2)cc1 [Compound 30]
95: [7]; 31 g ai/ha | [9]; 250 g ai/ha | [10]; 250 g ai/ha | [17]; 250 g ai/ha | [20]; 62 g ai/ha | [20]; 125 g ai/ha
15: [3]; 31 g ai/ha | [12]; 62 g ai/ha | [12]; 125 g ai/ha
98: [4]; 31 g ai/ha | [4]; 62 g ai/ha | [6]; 62 g ai/ha | [7]; 62 g ai/ha | [7]; 125 g ai/ha | [8]; 125 g ai/ha | [20]; 250 g ai/ha
70: [3]; 250 g ai/ha | [9]; 62 g ai/ha
40: [10]; 31 g ai/ha | [11]; 62 g ai/ha
100: [2]; 31 g ai/ha | [2]; 62 g ai/ha | [2]; 125 g ai/ha | [2]; 250 g ai/ha | [4]; 125 g ai/ha | [4]; 250 g ai/ha | [5]; 62 g ai/ha | [5]; 125 g ai/ha | [5]; 250 g ai/ha | [6]; 31 g ai/ha | [6]; 125 g ai/ha | [6]; 250 g ai/ha | [7]; 250 g ai/ha | [8]; 250 g ai/ha | [11]; 250 g ai/ha | [20]; 31 g ai/ha
65: [8]; 31 g ai/ha | [8]; 62 g ai/ha | [10]; 62 g ai/ha | [12]; 250 g ai/ha | [14]; 62 g ai/ha
25: [12]; 31 g ai/ha
75: [9]; 125 g ai/ha | [11]; 125 g ai/ha | [14]; 125 g ai/ha | [17]; 31 g ai/ha
80: [17]; 62 g ai/ha
35: [18]; 125 g ai/ha | [19]; 250 g ai/ha
30: [1]; 250 g ai/ha | [11]; 31 g ai/ha | [16]; 250 g ai/ha | [18]; 62 g ai/ha | [18]; 250 g ai/ha | [19]; 62 g ai/ha | [19]; 125 g ai/ha
90: [5]; 31 g ai/ha | [14]; 250 g ai/ha
0: [1]; 31 g ai/ha | [1]; 62 g ai/ha | [1]; 125 g ai/ha | [13]; 31 g ai/ha | [13]; 62 g ai/ha | [13]; 125 g ai/ha | [13]; 250 g ai/ha | [15]; 31 g ai/ha
85: [10]; 125 g ai/ha | [17]; 125 g ai/ha
50: [3]; 125 g ai/ha | [14]; 31 g ai/ha | [15]; 250 g ai/ha
20: [3]; 62 g ai/ha | [9]; 31 g ai/ha | [15]; 125 g ai/ha | [16]; 62 g ai/ha | [16]; 125 g ai/ha | [18]; 31 g ai/ha | [19]; 31 g ai/ha
10: [15]; 62 g ai/ha | [16]; 31 g ai/ha
